Experimental data as given in ChEMBL document CHEMBL5214960 (J Med Chem, 2022).
Residue numbers refer to the chain shown, from its start. Values after ≈ are worked out from the molar mass of the structure shown.

Experiments:
[1] = target: Tyrosine-protein phosphatase non-receptor type 1 (Homo sapiens, UniProt P18031); test: Inhibition of PTP1B (unknown origin)
[2] = target: Tyrosine-protein phosphatase non-receptor type 12 (Homo sapiens, UniProt Q05209); test: Inhibition of PEST(unknown origin)
[3] = AUC(0 to 8 hrs) in CD-1 mouse plasma at 10 mg/kg, po measured after 8 hrs by LC-MS/MS analysis; format: ADME, organism-based; design: dose 10 mg/kg, time 8 hrs, route po; settings: in vivo
[4] = Half life in Sprague-Dawley rat plasma at 30 mg/kg, po measured after 24 hrs by LC-MS/MS analysis; format: ADME, organism-based; settings: in vivo
[5] = target: Receptor-type tyrosine-protein phosphatase alpha (Homo sapiens, UniProt P18433); test: Inhibition of PTPalpha (unknown origin)
[6] = AUC(0 to 8 hrs) in CD-1 mouse plasma at 2 mg/kg, iv measured after 8 hrs by LC-MS/MS analysis; format: ADME, organism-based; design: dose 2 mg/kg, time 8 hrs, route iv; settings: in vivo
[7] = target: Receptor-type tyrosine-protein phosphatase gamma (Homo sapiens, UniProt P23470); test: Inhibition of PTPgamma (unknown origin)
[8] = Cmax in Sprague-Dawley rat plasma at 30 mg/kg, po measured after 24 hrs by LC-MS/MS analysis; format: ADME, organism-based; design: time 24 hrs, dose 30 mg/kg, route po; settings: in vivo
[9] = Unbound Cmax in plasma of Sprague-Dawley rat at 30 mg/kg, po measured after 24 hrs by LC-MS/MS analysis; format: ADME, organism-based; settings: in vivo
CYP3A4 = CYP3A4 (Homo sapiens, UniProt P08684); test: Inhibition of human hepatic CYP3A4 using midazolam as substrate measured after 3 mins by LC-MS analysis relative to control; format: ADME, tissue-based; design: concentration or dose not given beside the values; settings: human hepatic CYP3A4 (liver), probe midazolam
[10] = target: Tyrosine-protein phosphatase non-receptor type 2 (Homo sapiens, UniProt P17706); test: Inhibition of TC-PTP (unknown origin)
[11] = target: Tyrosine-protein phosphatase non-receptor type 13 (Homo sapiens, UniProt Q12923); test: Inhibition of FAP-1(unknown origin)
[12] = Metabolic stability in human hepatic microsome at 4 uM measured after 30 mins by LC-MS analysis; format: ADME; settings: liver microsomes, read-out: Stability
[13] = target: Receptor-type tyrosine-protein phosphatase C (Homo sapiens, UniProt P08575); test: Inhibition of CD45 (unknown origin)
[14] = target: RNA polymerase II subunit A C-terminal domain phosphatase SSU72 (Homo sapiens, UniProt Q9NP77); test: Inhibition of SSU72 (unknown origin)
CYP2C9 = CYP2C9 (Homo sapiens, UniProt P11712); test: Inhibition of human hepatic CYP2C9 using diclofenac as substrate measured after 10 mins by LC-MS analysis relative to control; format: ADME, tissue-based; design: concentration or dose not given beside the values; settings: human hepatic CYP2C9 (liver), probe diclofenac
[15] = Half life in CD-1 mouse plasma at 10 mg/kg, po measured after 8 hrs by LC-MS/MS analysis; format: ADME, organism-based; settings: in vivo
[16] = target: Receptor-type tyrosine-protein phosphatase S (Homo sapiens, UniProt Q13332); test: Inhibition of PTPsigma (unknown origin)
[17] = target: T1, Low molecular weight phosphotyrosine protein phosphatase (Mus musculus, UniProt Q9D358); test: Inhibition of N-terminal His-tagged full length mouse LMW-PTP expressed in Escherichia coli BL21(DE3) by […] analysis
T1 sequence (Q9D358 whole entry): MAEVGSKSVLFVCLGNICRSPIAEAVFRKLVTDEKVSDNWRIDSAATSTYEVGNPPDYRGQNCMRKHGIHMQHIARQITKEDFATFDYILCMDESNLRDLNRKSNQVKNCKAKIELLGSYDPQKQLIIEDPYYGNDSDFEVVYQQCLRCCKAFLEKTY

[18] = Aqueous solubility of compound at pH 6 by HPLC analysis; format: physicochemical; settings: buffer
[19] = target: T2, Low molecular weight phosphotyrosine protein phosphatase (Rattus norvegicus, UniProt P41498); test: Inhibition of N-terminal His-tagged full length rat LMW-PTP expressed in Escherichia coli BL21(DE3)
T2 sequence (P41498 whole entry): T1 sequence (Q9D358 whole entry) with K35N, R65K, K80R, Y158H

[20] = target: Dual specificity protein phosphatase 23 (Homo sapiens, UniProt Q9BVJ7); test: Inhibition of VHZ (unknown origin)
[21] = target: T3, Low molecular weight phosphotyrosine protein phosphatase (Homo sapiens, UniProt P24666); test: Competitive inhibition of LMW-PTP (unknown origin) assessed as inhibition constant by Lineweaver-Burk plot analysis
T3 sequence (P24666 whole entry): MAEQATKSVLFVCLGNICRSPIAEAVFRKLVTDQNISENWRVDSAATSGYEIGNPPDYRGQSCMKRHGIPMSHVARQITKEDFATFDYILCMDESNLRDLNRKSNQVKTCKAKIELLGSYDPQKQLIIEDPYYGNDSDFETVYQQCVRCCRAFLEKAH

[22] = target: Dual specificity protein phosphatase CDC14A (Homo sapiens, UniProt Q9UNH5); test: Inhibition of CDC14A (unknown origin)
[23] = target: Tyrosine-protein phosphatase non-receptor type 11 (Homo sapiens, UniProt Q06124); test: Inhibition of SHP2 (unknown origin)
[24] = Metabolic stability in dog hepatic microsome at 4 uM measured after 30 mins by LC-MS analysis; format: ADME, Canis lupus familiaris; settings: liver microsomes, read-out: Stability
[25] = Metabolic stability in mouse hepatic microsome at 4 uM measured after 30 mins by LC-MS analysis; format: ADME; settings: liver microsomes, read-out: Stability
CYP2D6 = CYP2D6 (Homo sapiens, UniProt P10635); test: Inhibition of human hepatic CYP2D6 using bufuralol HCL as substrate measured after 3 mins by LC-MS analysis relative to control; format: ADME, tissue-based; design: concentration or dose not given beside the values; settings: human hepatic CYP2D6 (liver), probe bufuralol HCl
[26] = Half life in CD-1 mouse plasma at 2 mg/kg, iv measured after 8 hrs by LC-MS/MS analysis; format: ADME, organism-based; settings: mouse, in vivo, iv, 2 mg/kg, 8 h
[27] = target: Receptor-type tyrosine-protein phosphatase mu (Homo sapiens, UniProt P28827); test: Inhibition of PTPmu (unknown origin)
[28] = Cmax in CD-1 mouse plasma at 10 mg/kg, po measured after 8 hrs by LC-MS/MS analysis; format: ADME, organism-based; design: dose 10 mg/kg, time 8 hrs, route po; settings: mouse, in vivo, 8 h
[29] = Volume of distribution at steady state in CD-1 mouse plasma at 2 mg/kg, iv measured after 8 hrs by LC-MS/MS analysis; format: ADME, organism-based; settings: in vivo
[30] = target: Receptor-type tyrosine-protein phosphatase F (Homo sapiens, UniProt P10586); test: Inhibition of LAR(unknown origin)
[31] = target: Tyrosine-protein phosphatase non-receptor type 3 (Homo sapiens, UniProt P26045); test: Inhibition of PTPH1 (unknown origin)
[32] = Unbound Cmax in plasma of CD-1 mouse at 2 mg/kg, iv measured after 8 hrs by LC-MS/MS analysis; format: ADME, organism-based; settings: in vivo
[33] = Tmax in Sprague-Dawley rat plasma at 30 mg/kg, po measured after 24 hrs by LC-MS/MS analysis; format: ADME, organism-based; settings: in vivo
[34] = target: Receptor-type tyrosine-protein phosphatase epsilon (Homo sapiens, UniProt P23469); test: Inhibition of PTPepsilon (unknown origin)

Sequence of Tyrosine-protein phosphatase non-receptor type 12 (Q05209 whole entry): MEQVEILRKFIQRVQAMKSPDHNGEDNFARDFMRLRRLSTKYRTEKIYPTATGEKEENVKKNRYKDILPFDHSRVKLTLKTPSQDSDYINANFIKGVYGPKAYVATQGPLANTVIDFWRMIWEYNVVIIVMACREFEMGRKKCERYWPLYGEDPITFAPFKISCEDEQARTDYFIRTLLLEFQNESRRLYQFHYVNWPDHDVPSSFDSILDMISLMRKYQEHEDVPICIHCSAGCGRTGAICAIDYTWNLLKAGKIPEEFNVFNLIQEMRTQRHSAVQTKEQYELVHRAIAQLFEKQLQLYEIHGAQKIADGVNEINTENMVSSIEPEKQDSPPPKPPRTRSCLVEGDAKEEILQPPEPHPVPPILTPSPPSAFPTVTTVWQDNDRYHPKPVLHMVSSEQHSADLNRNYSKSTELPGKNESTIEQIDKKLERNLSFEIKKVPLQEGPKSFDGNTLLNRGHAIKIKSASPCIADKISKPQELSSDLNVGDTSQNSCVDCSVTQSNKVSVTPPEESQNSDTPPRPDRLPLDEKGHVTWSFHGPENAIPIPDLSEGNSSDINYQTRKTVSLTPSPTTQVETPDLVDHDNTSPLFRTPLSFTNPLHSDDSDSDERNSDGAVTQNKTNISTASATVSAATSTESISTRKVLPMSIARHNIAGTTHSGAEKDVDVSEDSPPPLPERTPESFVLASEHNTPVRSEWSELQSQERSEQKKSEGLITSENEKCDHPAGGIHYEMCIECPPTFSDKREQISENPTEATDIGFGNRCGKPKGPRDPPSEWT
Sequence of Dual specificity protein phosphatase 23 (Q9BVJ7 whole entry): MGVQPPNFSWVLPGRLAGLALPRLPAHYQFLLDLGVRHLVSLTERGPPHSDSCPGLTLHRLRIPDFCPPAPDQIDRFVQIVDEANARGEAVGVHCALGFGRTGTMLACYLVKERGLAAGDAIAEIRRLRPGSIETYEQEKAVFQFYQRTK
Sequence of Receptor-type tyrosine-protein phosphatase C (P08575 whole entry, the tested form may be a part): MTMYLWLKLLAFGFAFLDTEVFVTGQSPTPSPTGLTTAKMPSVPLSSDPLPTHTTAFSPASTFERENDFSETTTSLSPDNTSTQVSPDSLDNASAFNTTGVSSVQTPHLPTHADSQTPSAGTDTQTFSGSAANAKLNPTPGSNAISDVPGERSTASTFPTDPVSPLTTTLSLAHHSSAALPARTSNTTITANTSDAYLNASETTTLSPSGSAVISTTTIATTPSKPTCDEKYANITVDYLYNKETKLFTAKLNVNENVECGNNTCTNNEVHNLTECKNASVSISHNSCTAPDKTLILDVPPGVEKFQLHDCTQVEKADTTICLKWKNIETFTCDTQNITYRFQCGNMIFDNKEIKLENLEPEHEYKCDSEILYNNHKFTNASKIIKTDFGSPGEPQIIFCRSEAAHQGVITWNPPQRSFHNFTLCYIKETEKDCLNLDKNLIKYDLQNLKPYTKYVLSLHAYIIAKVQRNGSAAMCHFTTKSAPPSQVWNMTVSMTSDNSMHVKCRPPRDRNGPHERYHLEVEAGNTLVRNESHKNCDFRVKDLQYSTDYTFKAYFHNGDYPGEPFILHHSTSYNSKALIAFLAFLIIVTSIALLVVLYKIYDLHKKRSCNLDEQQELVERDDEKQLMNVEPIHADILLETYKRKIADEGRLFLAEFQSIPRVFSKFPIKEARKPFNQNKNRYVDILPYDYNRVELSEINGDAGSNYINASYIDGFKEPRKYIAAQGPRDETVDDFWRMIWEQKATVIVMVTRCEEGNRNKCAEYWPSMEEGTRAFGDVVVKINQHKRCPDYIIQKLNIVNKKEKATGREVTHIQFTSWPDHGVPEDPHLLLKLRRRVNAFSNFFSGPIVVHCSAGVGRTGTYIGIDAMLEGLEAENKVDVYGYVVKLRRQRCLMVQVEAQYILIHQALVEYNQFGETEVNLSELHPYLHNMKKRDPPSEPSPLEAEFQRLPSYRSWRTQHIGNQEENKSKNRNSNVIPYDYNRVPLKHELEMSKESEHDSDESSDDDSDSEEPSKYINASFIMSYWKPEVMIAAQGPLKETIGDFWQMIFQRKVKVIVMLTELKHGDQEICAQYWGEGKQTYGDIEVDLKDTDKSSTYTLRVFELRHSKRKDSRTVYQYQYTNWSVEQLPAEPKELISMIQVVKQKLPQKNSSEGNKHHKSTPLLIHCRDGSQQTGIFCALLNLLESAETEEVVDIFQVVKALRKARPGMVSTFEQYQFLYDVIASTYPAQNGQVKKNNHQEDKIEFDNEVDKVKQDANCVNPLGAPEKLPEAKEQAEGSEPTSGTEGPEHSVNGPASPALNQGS
Sequence of Tyrosine-protein phosphatase non-receptor type 1 (P18031 whole entry): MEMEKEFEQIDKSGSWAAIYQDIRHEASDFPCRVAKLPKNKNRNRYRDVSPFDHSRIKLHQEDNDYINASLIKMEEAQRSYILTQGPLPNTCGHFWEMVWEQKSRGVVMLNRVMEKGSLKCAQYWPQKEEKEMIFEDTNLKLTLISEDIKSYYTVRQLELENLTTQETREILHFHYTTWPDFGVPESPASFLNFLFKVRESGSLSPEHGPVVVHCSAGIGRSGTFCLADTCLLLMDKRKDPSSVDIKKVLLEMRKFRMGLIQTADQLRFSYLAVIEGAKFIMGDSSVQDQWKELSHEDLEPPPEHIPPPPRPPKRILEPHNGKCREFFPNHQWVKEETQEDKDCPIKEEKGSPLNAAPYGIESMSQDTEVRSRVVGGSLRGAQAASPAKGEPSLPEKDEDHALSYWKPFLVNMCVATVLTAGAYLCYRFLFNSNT
Sequence of Tyrosine-protein phosphatase non-receptor type 11 (Q06124 whole entry): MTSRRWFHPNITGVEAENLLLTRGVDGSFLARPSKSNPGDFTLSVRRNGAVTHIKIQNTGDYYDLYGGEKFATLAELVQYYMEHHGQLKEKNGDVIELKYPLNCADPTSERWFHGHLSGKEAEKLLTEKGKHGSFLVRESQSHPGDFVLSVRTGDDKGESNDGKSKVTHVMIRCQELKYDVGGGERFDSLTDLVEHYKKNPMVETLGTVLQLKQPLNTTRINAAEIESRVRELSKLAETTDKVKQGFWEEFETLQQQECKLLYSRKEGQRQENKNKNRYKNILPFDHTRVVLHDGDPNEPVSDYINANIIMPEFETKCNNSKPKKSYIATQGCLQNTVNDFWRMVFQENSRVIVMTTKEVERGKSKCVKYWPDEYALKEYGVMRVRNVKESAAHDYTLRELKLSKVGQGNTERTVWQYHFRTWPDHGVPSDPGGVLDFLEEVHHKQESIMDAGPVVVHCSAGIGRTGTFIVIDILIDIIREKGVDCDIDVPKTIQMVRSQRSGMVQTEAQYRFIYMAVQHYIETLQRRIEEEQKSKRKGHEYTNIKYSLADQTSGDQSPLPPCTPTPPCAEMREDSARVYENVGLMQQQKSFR
Sequence of Tyrosine-protein phosphatase non-receptor type 3 (P26045 whole entry): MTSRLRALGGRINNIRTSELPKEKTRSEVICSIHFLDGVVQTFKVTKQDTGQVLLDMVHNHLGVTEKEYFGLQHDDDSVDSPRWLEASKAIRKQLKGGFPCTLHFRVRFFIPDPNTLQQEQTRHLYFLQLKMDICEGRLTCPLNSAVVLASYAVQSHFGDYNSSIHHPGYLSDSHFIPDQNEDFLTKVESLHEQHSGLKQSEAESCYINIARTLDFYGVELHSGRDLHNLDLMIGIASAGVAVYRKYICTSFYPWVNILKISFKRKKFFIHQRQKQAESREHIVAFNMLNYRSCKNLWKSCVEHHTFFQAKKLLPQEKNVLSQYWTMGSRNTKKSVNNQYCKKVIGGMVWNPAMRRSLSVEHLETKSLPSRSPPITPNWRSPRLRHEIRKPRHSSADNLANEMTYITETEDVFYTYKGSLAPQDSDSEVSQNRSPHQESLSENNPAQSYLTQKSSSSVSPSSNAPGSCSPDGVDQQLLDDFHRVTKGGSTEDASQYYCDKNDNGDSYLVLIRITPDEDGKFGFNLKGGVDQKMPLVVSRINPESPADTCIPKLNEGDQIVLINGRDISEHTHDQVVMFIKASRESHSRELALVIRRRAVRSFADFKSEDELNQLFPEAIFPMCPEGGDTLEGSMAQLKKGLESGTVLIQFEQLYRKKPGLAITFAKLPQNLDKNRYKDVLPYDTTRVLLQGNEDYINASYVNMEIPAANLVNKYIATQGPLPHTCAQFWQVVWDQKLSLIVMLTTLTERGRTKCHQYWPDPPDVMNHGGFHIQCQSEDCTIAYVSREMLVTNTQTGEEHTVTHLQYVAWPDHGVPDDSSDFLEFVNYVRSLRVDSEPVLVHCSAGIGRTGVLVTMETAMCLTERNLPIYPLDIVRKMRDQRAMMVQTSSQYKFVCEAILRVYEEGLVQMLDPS
Sequence of CYP2C9 (P11712 whole entry): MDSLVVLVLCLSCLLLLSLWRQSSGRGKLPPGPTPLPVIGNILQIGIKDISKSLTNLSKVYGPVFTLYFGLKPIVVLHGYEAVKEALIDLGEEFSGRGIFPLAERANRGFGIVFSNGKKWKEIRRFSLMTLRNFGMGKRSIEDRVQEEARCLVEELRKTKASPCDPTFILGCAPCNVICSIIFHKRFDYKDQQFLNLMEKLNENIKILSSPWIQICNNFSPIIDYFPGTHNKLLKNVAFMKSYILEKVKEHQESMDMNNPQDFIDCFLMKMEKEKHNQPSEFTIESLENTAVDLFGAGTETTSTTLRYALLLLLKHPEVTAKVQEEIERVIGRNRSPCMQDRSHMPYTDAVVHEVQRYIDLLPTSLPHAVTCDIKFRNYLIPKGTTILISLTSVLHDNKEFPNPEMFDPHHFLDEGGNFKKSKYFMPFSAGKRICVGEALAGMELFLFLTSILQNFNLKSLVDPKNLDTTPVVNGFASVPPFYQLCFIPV
Sequence of RNA polymerase II subunit A C-terminal domain phosphatase SSU72 (Q9NP77 whole entry, the tested form may be a part): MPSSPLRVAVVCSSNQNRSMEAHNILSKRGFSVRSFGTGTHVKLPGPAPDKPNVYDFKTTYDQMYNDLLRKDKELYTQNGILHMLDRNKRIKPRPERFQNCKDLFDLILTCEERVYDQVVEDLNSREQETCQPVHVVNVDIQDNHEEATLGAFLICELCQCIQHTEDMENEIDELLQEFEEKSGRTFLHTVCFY

Cc1c(Br)cc(NC(=O)NS(=O)(=O)O)cc1Br
IC50 [1]: > 10 µM
IC50 [2]: > 10 µM
AUC [3]: 37.3 µM·h
t1/2 [4]: 2.8 h
IC50 [5]: > 10 µM
AUC [6]: 15.1 µM·h
IC50 [7]: > 10 µM
Cmax [8]: 6.59 µM
fCmax [9]: 158 nM
inhibition at 0.05 h (CYP3A4): 0%
IC50 [10]: > 10 µM
IC50 [11]: > 10 µM
remaining at 0.5 h, 4 µM [12]: 21%
IC50 [13]: > 10 µM
IC50 [14]: > 10 µM
inhibition at 10 min (CYP2C9): 0%
t1/2 [15]: 4.2 h
IC50 [16]: > 10 µM
IC50 [17]: 0.003 µM
solubility [18]: 9.5 µg/mL (≈ 24.5 µM)
IC50 [19]: 0.003 µM
IC50 [20]: > 10 µM
Ki [21]: 0.0012 µM
IC50 [22]: > 10 µM
IC50 [23]: > 10 µM
remaining at 0.5 h, 4 µM [24]: 38%
remaining at 0.5 h, 4 µM [25]: 30%
inhibition at 0.05 h (CYP2D6): 2%
t1/2 [26]: 1.41 h
IC50 [27]: > 10 µM
Cmax [28]: 9.69 µM
Vdss [29]: 0.42 L/kg
IC50 [30]: > 10 µM
IC50 [31]: > 10 µM
fCmax [32]: 322 nM
Tmax [33]: 2.7 h
IC50 [34]: > 10 µM
